What was measured:
[1] = test system: PC3 prostate cancer cells; experiment: Tumour cell viability, Alamar Blue; type: cell-based; conditions: 48 hours; mean n = 3, SEMs < 5%; camptothecin at 3 μmol
Description: (§1) The effects of micrin on viability of tumour cells were determined using MCF7 breast cancer cells and PC3 prostate cancer cells. Cells were plated out to provide 2×10^4 cells in 2 cm^2 wells in Dulbecco's modified Eagles medium (DMEM) containing 10% foetal calf serum (FCS), antibiotics and a stabilised substitute for glutamine (Glutamax, Invitrogen UK). The cells were allowed to attach overnight. The medium was removed and the cells were washed several times with fresh medium, and then treated with test or control samples diluted in medium.
(§2) Test and control samples were produced according to an ion exchange method using 120 ml sheep ovarian follicular fluid as the starting material. Follicular fluid obtained by aspiration of abattoir-derived sheep ovaries was centrifuged at +4° C. and 2000 g for 10 minutes, then spun through Amicon Centriprep-30 cartridges at 1800 g to give a nominal 0-30 kD fraction. This fraction was spun through Amicon Centriprep-3 cartridges to give a nominal 3-30 kD sub-fraction. […]
(§3) Camptothecin, an inducer of apoptosis, was used as a positive control at 3 μmol. After 48 hours the medium was changed for fresh medium and the number of remaining viable cells was quantitated using Alamar Blue. The number of viable cells in the micrin and camptothecin samples were expressed as a percentage of the number of viable cells in the micrin-free control samples. […]

[2] = test system: MCF7 breast cancer cells; experiment: Tumour cell viability, Alamar Blue; type: cell-based, human; conditions: 48 hours; mean n = 3, SEMs < 5%; camptothecin at 3 μmol
Description: as §1, §2, §3

`CC[C@@]1(O)C(=O)OCc2c1cc1n(c2=O)Cc2cc3ccccc3nc2-1` [Camptothecin] was tested, and the “Viability (% micrin-free control) PC3 (prostate cancer)” value [1] was 43.9 % micrin-free control and the “Viability (% micrin-free control) MCF-7 (breast cancer)” value [2] was 56.2 % micrin-free control.
